In patent publication US7456167B2, “Cyclopropyl fused indolobenzazepine HCV NS5B inhibitors” (Bristol-Myers Squibb Company, priority 2006, dated 2008):
pEC50, pIC50: −log10 of the molar value.

What was measured:
HCV replicon cells = assay: HCV replicon FRET assay; type: cell-based; conditions: Hepatitis C virus; HCV replicon cells; FRET assay; read-out: EC50
Description: FRET Assay Preparation. To perform the HCV FRET screening assay, 96-well cell culture plates were used. The FRET peptide (Anaspec, Inc.) (Taliani et al., Anal. Biochem. 1996, 240, 60-67) contains a fluorescence donor, EDANS, near one end of the peptide and an acceptor, DABCYL, near the other end. The fluorescence of the peptide is quenched by […] resonance energy transfer (RET) between the donor and the acceptor, but as the NS3 protease cleaves the peptide the products are released from RET quenching and the fluorescence of the donor becomes apparent. The assay reagent was made as follows: 5× cell Luciferase cell culture lysis reagent from Promega (#E153A) diluted to 1× with dH2O, NaCl added to 150 mM final, the FRET peptide diluted to 20 uM final from a 2 mM stock.
To prepare plates, HCV replicon cells, with or without a Renilla luciferase reporter gene, were trypsinized and placed into each well of a 96-well plate with titrated test compounds added in columns 3 through 12; columns 1 and 2 contained a control compound (HCV protease inhibitor), and the bottom row contained cells without compound. The plates were then placed in a CO2 incubator at 37° C.
Assays. Subsequent to addition of the test compounds described above (FRET Assay Preparation), at various times the plate was removed and Alamar blue solution (Trek Diagnostics, #00-100) was added per well as a measure of cellular toxicity. After reading in a Cytoflour 4000 instrument (PE Biosystems), plates were rinsed with PBS and then used for FRET assay by the addition of 30 ul of the FRET peptide assay reagent described above (FRET Assay Preparation) per well. The plate was then placed into the Cytoflour 4000 instrument which had been set to 340 excite/490 emission, automatic mode for 20 cycles and the plate read in a kinetic mode. Typically, the signal to noise using an endpoint analysis after the reads was at least three-fold. Alternatively, after Alamar blue reading, plates were rinsed with PBS, 50 ul of DMEM (high glucose) without phenol red was added and plates were then used for luciferase assay using the Promega Dual-Glo Luciferase Assay System.
Compound analysis was determined by quantification of the relative HCV replicon inhibition and the relative cytotoxicity values. To calculate cytoxicity values, the average Alamar Blue fluorescence signals from the control wells were set as 100% non-toxic. The individual signals in each of the compound test wells were then divided by the average control signal and multiplied by 100% to determine […]. To calculate the HCV replicon inhibition values, an average background value was obtained from the two wells containing the highest amount of HCV protease inhibitor at the end of the assay period. These numbers were similar to those obtained from naïve Huh-7 cells.
The background numbers were then subtracted from the average signal obtained from the control wells and this number was used as 100% activity. The individual signals in each of the compound test wells were then divided by the averaged control values after background subtraction and multiplied by 100% to determine percent activity. EC50 values for a protease inhibitor titration were calculated as the concentration which caused a 50% reduction in FRET or luciferase activity. The two numbers generated for the compound plate, percent cytoxicity and percent activity were used to determine compounds of interest for further analysis.

[1] = target: T1, HCV NS5B RdRp genotype 1b (Hepatitis C virus genotype 1b, UniProt Q9WMX2); assay: Modified HCV NS5B RdRp enzyme assay (preincubation protocol); type: biochemical; conditions: HCV NS5B RdRp genotype 1b; preincubation protocol; read-out: IC50
T1 construct: The protein was expressed with an 18 amino acid C-terminal truncation to enhance the solubility; made in house; host or cells: E. coli BL21(DE3)
T1 sequence (Q9WMX2 2420-2992): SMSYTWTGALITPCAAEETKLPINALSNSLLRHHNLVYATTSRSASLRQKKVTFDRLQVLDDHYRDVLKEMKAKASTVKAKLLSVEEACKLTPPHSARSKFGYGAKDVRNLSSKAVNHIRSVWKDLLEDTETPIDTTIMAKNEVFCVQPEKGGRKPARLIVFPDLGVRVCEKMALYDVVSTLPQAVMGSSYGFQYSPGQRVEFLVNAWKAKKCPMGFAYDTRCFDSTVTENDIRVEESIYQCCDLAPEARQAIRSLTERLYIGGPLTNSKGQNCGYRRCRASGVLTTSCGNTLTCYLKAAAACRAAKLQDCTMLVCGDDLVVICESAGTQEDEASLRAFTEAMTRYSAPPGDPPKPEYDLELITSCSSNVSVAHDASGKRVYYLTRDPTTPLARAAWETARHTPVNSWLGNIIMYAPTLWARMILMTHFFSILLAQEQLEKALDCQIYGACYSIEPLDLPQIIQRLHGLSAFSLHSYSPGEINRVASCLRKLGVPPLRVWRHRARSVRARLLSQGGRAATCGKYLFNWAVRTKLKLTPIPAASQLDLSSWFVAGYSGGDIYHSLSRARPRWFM
Protocol: HCV NS5B RdRp cloning, expression, and purification. The cDNA encoding the NS5B protein of HCV, genotype 1b, was cloned into the pET21a expression vector. The protein was expressed with an 18 amino acid C-terminal truncation to enhance the solubility. The E. coli competent cell line BL21(DE3) was used for expression of the protein. Cultures were grown at 37° C. for ˜4 hours until the cultures reached an optical density of 2.0 at 600 nm. The cultures were cooled to 20° C. and induced with 1 mM IPTG. Fresh ampicillin was added to a final concentration of 50 μg/ml and the cells were grown overnight at 20° C.
Cell pellets (3 L) were lysed for purification to yield 15-24 mgs of purified NS5B. The lysis buffer consisted of 20 mM Tris-HCl, pH 7.4, 500 mM NaCl, 0.5% triton X-100, 1 mM DTT, 1 mM EDTA, 20% glycerol, 0.5 mg/ml lysozyme, 10 mM MgCl2, 15 ug/ml deoxyribonuclease I, and Complete TM protease inhibitor tablets (Roche). After addition of the lysis buffer, frozen cell pellets were resuspended using a tissue homogenizer. To reduce the viscosity of the sample, aliquots of the lysate were sonicated on ice using a microtip attached to a Branson sonicator. The sonicated lysate was centrifuged at 100,000×g for 1 hr at 4° C. and filtered through a 0.2 μm filter unit (Corning).
The protein was purified using three sequential chromatography steps: Heparin sepharose CL-6B, polyU sepharose 4B, and Hitrap SP sepharose (Pharmacia). The chromatography buffers were identical to the lysis buffer but contained no lysozyme, deoxyribonuclease I, MgCl2 or protease inhibitor and the NaCl concentration of the buffer was adjusted according to the requirements for charging the protein onto the column. Each column was eluted with a NaCl gradient which varied in length from 5-50 column volumes depending on the column type. After the final chromatography step, the resulting purity of the enzyme is >90% based on SDS-PAGE analysis. The enzyme was aliquoted and stored at −80° C.
Standard HCV NS5B RdRp enzyme assay. HCV RdRp genotype 1b assays were run in a final volume of 60 μl in 96 well plates (Costar 3912). The assay buffer is composed of 20 mM Hepes, pH 7.5, 2.5 mM KCl, 2.5 mM MgCl2, 1 mM DTT, 1.6 U RNAse inhibitor (Promega N2515), 0.1 mg/ml BSA (Promega R3961), and 2% glycerol. All compounds were serially diluted (3-fold) in DMSO and diluted further in water such that the final concentration of DMSO in the assay was 2%. HCV RdRp genotype 1b enzyme was used at a final concentration of 28 nM. A polyA template was used at 6 nM, and a biotinylated oligo-dT12 primer was used at 180 nM final concentration. Template was obtained commercially (Amersham 27-4110). Biotinylated primer was prepared by Sigma Genosys. 3H-UTP was used at 0.6 μCi (0.29 μM total UTP). Reactions were initiated by the addition of enzyme, incubated at 30° C. for 60 min, and stopped by adding 25 μl of 50 mM EDTA containing SPA beads (4 μg/μl, Amersham RPNQ 0007). Plates were read on a Packard Top Count NXT after >1 hr incubation at room temperature.
Modified HCV NS5B RdRp enzyme assay. A modified enzyme assay was performed essentially as described for the standard enzyme assay except for the following: The biotinylated oligo dT12 primer was precaptured on streptavidin-coated SPA beads by mixing primer and beads in assay buffer and incubating at room temperature for one hour. Unbound primer was removed after centrifugation. The primer-bound beads were resuspended in 20 mM Hepes buffer, pH 7.5 and used in the assay at final concentrations of 20 nM primer and 0.67 μg/μl beads. Order of addition in the assay: enzyme (14 nM) was added to diluted compound followed by the addition of a mixture of template (0.2 nM), 3H-UTP (0.6 μCi, 0.29 μM), and primer-bound beads, to initiate the reaction; concentrations given are final. Reactions were allowed to proceed for 4 hours at 30° C.
IC50 values for compounds were determined using seven different [I]. […]

Compound	pEC50 (HCV replicon cells)	pIC50 [1]
CCS(=O)(=O)C12CC1c1ccccc1-c1c(C3CCCCC3)c3ccc(C(=O)NS(=O)(=O)N(C)C)cc3n1C2 (stereo not shown)	6.00 to 7.70	6.00 to 7.70
COc1ccc2c(c1)CC(S(=O)(=O)CCN1CCN(C)CC1)Cn1c-2c(C2CCCCC2)c2ccc(C(=O)NS(=O)(=O)N(C)C)cc21 (stereo not shown)	6.00 to 7.70	6.00 to 7.70
COc1ccc2c(c1)C=C(S(=O)(=O)N1CCOCC1)Cn1c-2c(C2CCCCC2)c2ccc(C(=O)NS(=O)(=O)N(C)C)cc21	6.00 to 7.70	6.00 to 7.70
COc1ccc2c(c1)C1CC1(S(=O)(=O)N1CCOCC1)Cn1c-2c(C2CCCCC2)c2ccc(C(=O)NS(=O)(=O)N(C)C)cc21 (stereo not shown)	6.00 to 7.70	6.00 to 7.70
COc1ccc2c(c1)CC(S(=O)(=O)N1CCOCC1)Cn1c-2c(C2CCCCC2)c2ccc(C(=O)O)cc21 (stereo not shown)	6.00 to 7.70	6.00 to 7.70
COc1ccc2c(c1)CC(S(=O)(=O)N1CCOCC1)Cn1c-2c(C2CCCCC2)c2ccc(C(=O)NS(=O)(=O)N(C)C)cc21 (stereo not shown)	6.00 to 7.70	6.00 to 7.70
CN(C)S(=O)(=O)NC(=O)c1ccc2c(C3CCCCC3)c3n(c2c1)CC(S(=O)(=O)N1CCOCC1)=Cc1ccccc1-3	6.00 to 7.70	6.00 to 7.70
COc1ccc2c(c1)C=C(S(=O)(=O)N1CCN(C)CC1)Cn1c-2c(C2CCCCC2)c2ccc(C(=O)NS(=O)(=O)N(C)C)cc21	6.00 to 7.70	6.00 to 7.70
COc1ccc2c(c1)C1CC1(S(=O)(=O)N1CCN(C)CC1)Cn1c-2c(C2CCCCC2)c2ccc(C(=O)NS(=O)(=O)N(C)C)cc21 (stereo not shown)	6.00 to 7.70	6.00 to 7.70
COC(=O)c1ccc2c(C3CCCCC3)c3n(c2c1)CC1(S(=O)(=O)O)CC1c1cc(OC)ccc1-3 (stereo not shown)	< 6.00	6.00 to 7.15
COc1ccc2c(c1)C1CC1(S(=O)(=O)N1CC3C[C@H]1CN3C)Cn1c-2c(C2CCCCC2)c2ccc(C(=O)O)cc21 (stereo partly shown)	6.00 to 7.70	6.00 to 7.70
COc1ccc2c(c1)C1CC1(S(=O)(=O)N1C[C@@H](C)N(C)[C@@H](C)C1)Cn1c-2c(C2CCCCC2)c2ccc(C(=O)O)cc21 (stereo partly shown)	6.00 to 7.70	6.00 to 7.70
COc1ccc2c(c1)C1CC1(S(=O)(=O)N1C[C@@H](C)O[C@@H](C)C1)Cn1c-2c(C2CCCCC2)c2ccc(C(=O)O)cc21 (stereo partly shown)	6.00 to 7.70	6.00 to 7.70
COc1ccc2c(c1)C1CC1(S(=O)(=O)N1CCN(S(C)(=O)=O)CC1)Cn1c-2c(C2CCCCC2)c2ccc(C(=O)O)cc21 (stereo not shown)	5.00 to 6.00	6.00 to 7.70
COc1ccc2c(c1)C1CC1(S(=O)(=O)N1CCCN(C)CC1)Cn1c-2c(C2CCCCC2)c2ccc(C(=O)O)cc21 (stereo not shown)	6.00 to 7.70	6.00 to 7.70
COc1ccc2c(c1)C1CC1(S(=O)(=O)N(C)C)Cn1c-2c(C2CCCCC2)c2ccc(C(=O)O)cc21 (stereo not shown)	6.00 to 7.70	5.00 to 6.00
COc1ccc2c(c1)C1CC1(S(=O)(=O)N(C)CCN(C)C)Cn1c-2c(C2CCCCC2)c2ccc(C(=O)O)cc21 (stereo not shown)	6.00 to 7.70	6.00 to 7.70
COc1ccc2c(c1)C1CC1(S(=O)(=O)N(C)CC(=O)N1CCOCC1)Cn1c-2c(C2CCCCC2)c2ccc(C(=O)O)cc21 (stereo not shown)	6.00 to 7.70	6.00 to 7.70
COc1ccc2c(c1)C1CC1(S(=O)(=O)N1CCC(O)CC1)Cn1c-2c(C2CCCCC2)c2ccc(C(=O)O)cc21 (stereo not shown)	6.00 to 7.70	6.00 to 7.70
COc1ccc2c(c1)C1CC1(S(=O)(=O)N1CC(O)C1)Cn1c-2c(C2CCCCC2)c2ccc(C(=O)O)cc21 (stereo not shown)	6.00 to 7.70	6.00 to 7.70
COc1ccc2c(c1)C1CC1(S(=O)(=O)N1CC(C)(O)C1)Cn1c-2c(C2CCCCC2)c2ccc(C(=O)O)cc21 (stereo not shown)	6.00 to 7.70	6.00 to 7.70
COc1ccc2c(c1)C1CC1(S(=O)(=O)N1CC3C[C@H]1CN3C)Cn1c-2c(C2CCCCC2)c2ccc(C(=O)NS(=O)(=O)N(C)C)cc21 (stereo partly shown)	6.00 to 7.70	6.00 to 7.70
COc1ccc2c(c1)C1CC1(S(=O)(=O)N1C[C@@H](C)N(C)[C@@H](C)C1)Cn1c-2c(C2CCCCC2)c2ccc(C(=O)NS(=O)(=O)N(C)C)cc21 (stereo partly shown)	6.00 to 7.70	6.00 to 7.70
COc1ccc2c(c1)C1CC1(S(=O)(=O)N1C[C@@H](C)N(C)[C@@H](C)C1)Cn1c-2c(C2CCCCC2)c2ccc(C(=O)NS(C)(=O)=O)cc21 (stereo partly shown)	6.00 to 7.70	6.00 to 7.70
CCS(=O)(=O)NC(=O)c1ccc2c(C3CCCCC3)c3n(c2c1)CC1(S(=O)(=O)N2C[C@@H](C)N(C)[C@@H](C)C2)CC1c1cc(OC)ccc1-3 (stereo partly shown)	6.00 to 7.70	6.00 to 7.70
COc1ccc2c(c1)C1CC1(S(=O)(=O)N1C[C@@H](C)N(C)[C@@H](C)C1)Cn1c-2c(C2CCCCC2)c2ccc(C(=O)NS(=O)(=O)C(C)C)cc21 (stereo partly shown)	6.00 to 7.70	6.00 to 7.70
